“And” between values parts separate entries of the source, which are not always exact repeats. Identical values can stand only once.

In experiment [1] the test system is RAW macrophages. Description: Collagen degradation by RAW macrophages given RAW/E44s conditioned media. The format is cell-based, murine. To be noted: TXA 10 mM, PLG 250 nm, MMP9 1 nM, 4 hours. As for the experimental part:
FIG. 16. […] (A), E. faecalis E44 was grown in TY media overnight, and cell-free conditioned media (E44s) was applied to RAW macrophages for 4 hours. PLG, 250 nm, was included in the reaction. […] PLG activation was measured by fluorogenic substrate cleavage. “RAW” column is naïve RAW. *p<0.05, n=6/group. (B), Conditioned media after co-interaction of macrophages with E. faecalis E44 (named RAW/E44s) was applied to naïve RAW macrophages for 4 hours. PLG, 250 nm, and MMP9, 1 nM, were in all reactions. […] “RAW+RAWs” column is naïve macrophages incubated with conditioned media of RAW macrophages (no E. faecalis E44). *p<0.05, n=6/group.
It was then tested whether macrophage collagen degradation activity is enhanced by stimulation with E. faecalis. Conditions from the above experiment (RAW/E44 s) with naïve RAW macrophages were used. PLG and MMP9 were included in the reaction. Degradation of collagen was enhanced by secreted factors produced during the co-interaction of RAW and E44s. […] Finally, to investigate the mechanism of PLG activation by E. faecalis, a parent collagenolytic strain isolated from a patient with AL (V583) was used, along with its mutant derivative (DDGelE/Spr) with secretory collagenolytic factors serine protease (Spr) and gelatinase (GelE) genetically removed. […]

Experiment [2] has as its system collagenolytic E. faecalis. Description: Quantitative culture of collagenolytic E. faecalis after V583-induced AL.
For experiment [3], the target named is PLG with uPA and pro-MMP9 (Homo sapiens, UniProt P00747). Description: Collagen/gelatin degradation by PLG, uPA and pro-MMP9 in a sterile system. The format is biochemical.
Description: Collagen degradation. Assays were performed per the manufacturer's instructions as previously described with slight modifications (51′). Bacteria were grown overnight in TY. Optical density was normalized to 0.1 through dilution. Bacteria were then incubated with fluorescein-labeled type I collagen, type IV collagen, or gelatin according to the manufacturer's instructions (ThermoFisher), human PLG at 250 nM and TXA. Total reaction volume was 200 L. The incubation proceeded at 37° C. for 5 hours to allow for bacterial attachment to collagen and PLG binding. uPA was added and the incubation proceeded for an additional hour. Change in fluorescence over time at 480/520 nm was determined kinetically over the initial 30 minutes of the reaction.
The subject of experiment [4] is P. aeruginosa-induced anastomotic leak. Description: Mouse model of P. aeruginosa-induced anastomotic leak. The class given is in vivo, mice. How it is done:
Mouse model of AL. The experiments disclosed herein used the validated model of pathogen-mediated AL in mice (8′). Ten- to 12-week-old C57BL/6 mice (Charles River) were provided standard chow and tap water ad libidum at all times. When indicated, mice received oral clindamycin (100 mg/kg gavage) and subcutaneous cefoxitin (40 mg/kg) the day prior to, and the day of, surgery. Mice underwent general anesthesia with intraperitoneal ketamine and xylocaine and laparotomy followed by transection of the colon at the colo-rectal junction followed by a primary anastomosis created with interrupted 8-0 prolene suture prior to abdominal closure with 4-0 vicryl suture in two layers. Rectal enemas containing pathogen, either E. faecalis or P. aeruginosa at an OD600 of 0.1 in 10% glycerol, were administered in 100 L enemas. E. faecalis was introduced on POD 1, 2, and 3, while P. aeruginosa was introduced only on POD 1. […] Rectal delivery with a gavage needle ensured local administration of pathogen and study drugs to the surgical site. Rules for stopping the experiment were enacted if mice appeared moribund or in any distress whereby they were sacrificed immediately. There were three deaths prior to planned sacrifice, all determined secondary to feculent peritonitis due to AL. Both the surgeon and the investigator performing analysis of healing were blind to the treatment group. […]

Experiment [5] has as its system E. faecalis. Description: E. faecalis growth (OD600 over four hours). The class given is cell-based, Enterococcus faecalis. The settings on record: TXA added to culture medium. The source says:
FIG. 44. […] Figures are representative of three separate experiments, each run in triplicate. Error bars indicate means±SD.

The subject of experiment [6] is RAW macrophages. Description: PLG activation by RAW macrophages stimulated with E44 conditioned media. The class given is cell-based, murine. The settings on record: TXA 10 mM, PLG 250 nm, 4 hours.
Description: (A), E. faecalis E44 was grown in TY media overnight, and cell-free conditioned media (E44s) was applied to RAW macrophages for 4 hours. PLG, 250 nm, was included in the reaction. TXA, 10 mM, was added when needed. PLG activation was measured by fluorogenic substrate cleavage. “RAW” column is naïve RAW. *p<0.05, n=6/group. (B), Conditioned media after co-interaction of macrophages with E. faecalis E44 (named RAW/E44s) was applied to naïve RAW macrophages for 4 hours. PLG, 250 nm, and MMP9, 1 nM, were in all reactions. TXA, 10 mM, was added when needed. “RAW+RAWs” column is naïve macrophages incubated with conditioned media of RAW macrophages (no E. faecalis E44). *p<0.05, n=6/group.
RAW 264.7 or J774 murine macrophages were incubated at 37° C. and 5% CO2 in Dulbecco's modified eagle media (DMEM) with 10% fetal bovine serum, penicillin/streptomycin and antifungals during growth. For plasmin activity assays, cells were plated at 10^4 cells/well on a 96-well plate in phenol-free DMEM with 1% FBS. Added bacteria were in low volumes of TY.
RAW 267.4 murine macrophages are co-incubated with E44, reasoning that bacteria and macrophages regularly co-interact in healing gut tissue. […] To confirm the expectation, naïve macrophages were stimulated with conditioned media from E44 overnight culture.
In experiment [7] the target is FITC-PLG at the anastomosis (Homo sapiens, UniProt P00747). Description: In vivo deposition of FITC-PLG at surgical anastomoses. More on the design: species or system mice. To be noted: TXA enema one hour prior to sacrifice, 48 and 72 hours post-operative.
Description: Mice underwent anastomosis without exposure to antibiotics or exogenous pathogen followed by intraperitoneal injection with FITC-PLG and either TXA or vehicle control enema one hour prior to sacrifice. Three animals per treatment group were sacrificed at various time points. […] Either TXA or water vehicle enema was administered along with systemic FITC-PLG injection one hour prior to sacrifice. […] Total FITC-PLG fluorescent signal was quantified in all mice as integrated density/area. […] A segment of anastomotic tissue collected from a mouse that received no enemas at 24 hours post-operative was observed. FITC-PLG fluorescence intensity is spatially quantified across the length of the tissue.
Mean FITC staining intensity was quantified as integrated density/area at the anastomotic sites of three mice per treatment group at the 48- and 72-hour time points.
The subject of experiment [8] is RAW macrophages stimulated by V583. Description: Gelatin degradation by V583-stimulated RAW macrophages. The class given is cell-based, murine. The settings on record: 10 mM TXA.
The test system of experiment [9] is E. faecalis E44-induced AL. Description: Mouse model of E44-induced anastomotic leak. The class given is in vivo, C57BL/6 mice. As for the experimental part: The role of activated plasminogen (PLG) in anastomotic leak. […] Co-incubation of E44 with murine macrophages ([…]) was performed for studies involving conditioned media. Twenty-week-old male C57BL/6 mice underwent the validated model of E44-induced AL that includes preoperative antibiotics to defaunate the colon, surgical transection and anastomosis of the colon and introduction of E44 in 10% glycerol to the surgical site via rectal enema on postoperative day 1. […] Anastomotic healing was assessed blindly using a validated anastomotic healing score (AHS): 0=uncomplicated healing, 1=flimsy adhesions, 2=dense adhesions, 3=abscess, and 4=gross anastomotic disruption. AL was defined as AHS 3 or above.

The target of experiment [10] is PLG activation by E. faecalis V583 (Homo sapiens, UniProt P00747). The format is biochemical.
Chain of PLG activation by E. faecalis V583 (P00747 20-810): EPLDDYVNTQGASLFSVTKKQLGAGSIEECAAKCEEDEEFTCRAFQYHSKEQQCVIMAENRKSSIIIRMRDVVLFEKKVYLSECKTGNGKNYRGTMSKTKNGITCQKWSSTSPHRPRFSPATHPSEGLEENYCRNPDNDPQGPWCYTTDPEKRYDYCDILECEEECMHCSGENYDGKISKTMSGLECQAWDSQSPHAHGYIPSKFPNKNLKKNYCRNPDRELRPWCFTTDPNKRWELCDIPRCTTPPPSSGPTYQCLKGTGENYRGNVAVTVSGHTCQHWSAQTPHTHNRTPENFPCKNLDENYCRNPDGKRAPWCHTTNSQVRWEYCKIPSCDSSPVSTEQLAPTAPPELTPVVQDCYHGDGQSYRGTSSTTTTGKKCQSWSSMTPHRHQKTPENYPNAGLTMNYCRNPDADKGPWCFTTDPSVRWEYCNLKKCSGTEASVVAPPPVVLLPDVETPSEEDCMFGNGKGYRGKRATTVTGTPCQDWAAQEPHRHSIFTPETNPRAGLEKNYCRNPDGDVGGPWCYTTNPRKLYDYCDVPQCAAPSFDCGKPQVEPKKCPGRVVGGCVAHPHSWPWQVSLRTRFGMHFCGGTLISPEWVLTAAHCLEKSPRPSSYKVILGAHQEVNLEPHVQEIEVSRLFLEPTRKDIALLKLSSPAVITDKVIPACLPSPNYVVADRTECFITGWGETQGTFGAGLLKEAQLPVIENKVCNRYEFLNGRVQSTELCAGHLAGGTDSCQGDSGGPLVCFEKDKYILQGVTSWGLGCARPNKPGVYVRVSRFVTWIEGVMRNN
Description: Plasminogen/uPA activity. Plasmin activity assays were performed as previously described with minor modifications, and fluorescence data was analyzed per the manufacturer's instructions (50′). Incubation times were optimized for bacteria at low optical density to limit internal filter effects in fluorescence-based assays. Bacteria (when included) were grown overnight in TY media. OD600 was normalized by dilution to 0.1, equivalent to 8×10^7 CFU/mL. Samples at OD 0.1 were diluted 1:10 in the final reaction through the addition of media and dissolved substrates. Bacteria were incubated with 250 nM human glu-plasminogen (Haematologic technologies) for two hours at 37° C. TXA (Fisher) was added concomitantly with PLG. […] A final concentration of 6 M fluorogenic substrate specific for plasmin (H-D-Val-Leu-Lys-AFC, AnaSpec) was added immediately prior to a kinetic fluorescent read with excitation wavelength 380 nm and emission wavelength 500 nm. Reads were conducted every 15 to 30 seconds over the course of 30 minutes. […] When assays were performed in human plasma, fluorescence was read for 120 minutes total.
Plasmin or uPA activity is expressed as initial reaction velocity calculated from change in fluorescence over time during the initial phase of the reaction, when pseudo-first order kinetics determine the rate due to high substrate concentrations where a linear rise in fluorescence is observed. […]

Chain of FITC-PLG at the anastomosis (P00747 20-810 limits assumed): as the sequence (P00747 20-810) above
Chain of PLG with uPA and pro-MMP9 (P00747 20-810 limits assumed): as the sequence (P00747 20-810) above

Take `NC[C@H]1CC[C@H](C(=O)O)CC1` [TXA, tranexamic acid]: the “collagen degradation by macrophages given RAW/E44s conditioned media” value in experiment [1] is “attenuated”. The “collagenolytic E. faecalis in anastomotic luminal contents” value in experiment [2] (POD 3, versus water enema) is recorded as “significantly decreased”; in experiment [2] (POD 8, versus water enema), “persisted but did not reach statistical significance”. In addition, the “CFU/mg collagenolytic E. faecalis in anastomotic tissue” value in [2] (POD 8, versus water enema) is “significantly fewer”; in experiment [2] (day 3, versus water enema) it was “no difference was observed”. Also, the “gelatin / type IV collagen degrading activity of PLG with uPA and pro-MMP9” value in [3] is given as “inhibited in a concentration-dependent manner”. The “clinical / gross leak” value in experiment [4] (5 mice per group, enema POD 1, 2, 3) is recorded as “None of the mice”. Besides, in experiment [4] (100 μL enema POD 1, 2, 3 (50 mM TXA in water or PBS), POD 8, water 3.8±0.4), the “anastomotic healing score (AHS)” value is 1.6±0.5 and 1.6+/−0.6. Also, the “bacterial growth (change in OD600 over four hours)” value in experiment [5] was “no effect on bacterial growth”. Moreover, the “PLG activation by macrophages stimulated with E44 conditioned media” value in experiment [6] is “This effect was inhibited”. Besides, the “FITC-PLG positivity at the anastomosis (integrated density/area)” value in experiment [7] is reported as “significantly decreased the amount of FITC-PLG positivity at the anastomosis at both time points”. The “gelatin degradation in V583-stimulated macrophages” value in [8] (PLG, uPA, 6 hours, no added pro-MMP9) was “significantly inhibited gelatin degradation”; in experiment [8] (with added pro-MMP9), “significantly diminished”. Further, the “overall healing (AHS) compared to vehicle control” value in experiment [9] (TXA 0.75 mg/kg rectal enema POD 1, 2 and 3, POD 8) is given as “significantly superior”. For the same compound, in experiment [9] (TXA 0.75 mg/kg rectal enema, scored postoperative day 8, vehicle 2.8), the “mean anastomotic healing score (AHS)” value was determined as 1.4. Further, in experiment [10] (in vitro, concentrations lower than circulating concentration after PO dosing (FIG. 23)), the “reduction in PLG activation by E. faecalis” value was determined as 20%. In addition, in experiment [10] (plasmin activity assay, PLG 250 nM, uPA), the “PLG activation by V583 in the presence of uPA” value is “inhibited PLG activation by V583 in a concentration-dependent manner”.

These data come from patent publication US12383579B2, “Materials and methods of using an inhibitor of plasminogen activation to treat anastomotic leak” (THE UNIVERSITY OF CHICAGO, priority 2018, dated 2025).
